# Assays:
# MDA-MB-435 (breast) = test: Anti-proliferative activity, MDA-MB-435; assay type: cell-based; conditions: Homo sapiens, read-out: Cell proliferation, IC50
# [1] = Pharmacokinetics in beagle dogs; assay type: in vivo; conditions: plasma, dog, 3 mg/kg
# Description: For serum compound analysis, blood samples were collected by cardiac puncture over 24 hr time course. 20 μL of spiked plasma was added into a 96-well plate, adding ten volumes of internal standard (IS) in acetonitrile (ACN) to the obtained precipitated protein mixed thoroughly, centrifuged at 4,000 rpm for 10 min. 150 μL of supernatant thus obtained was transferred to another pre-labeled 96-well plate, mixed with 150 μL of water. 5 μL or 10 μL of the mixture was injected into the LC-MS system under the following conditions:
# Column: API-4000+Waters UPLC (TCLM08);
# Lower limit of quantification (LLOQ) was at 1 ng/mL. Pharmacokinetic parameters of half-life (T1/2), clearance (CL), maximum plasma concentration (Cmax), mean residence time (MRT) and bioavailability (F %), plasma exposure (AUC) of the compound were calculated using Phoenix WinNonlin 6.3 (non-compartmental model).
# Further, pharmacokinetics of Compound 1 in dog was evaluated in beagle dogs following IV administration at 3 mg/kg and PO administration at 3 mg/kg dose level, respectively.
# human BRD4 bromodomain 1 = human BRD4 bromodomain 1 (Homo sapiens (Human), UniProt O60885); test: Bromodomain binding assay (BRD4 Alpha-screen); conditions: acetylated histone H4 peptide
# Description: Bromodomain binding assays were carried out in Reaction Biology (PA, USA) to test the degrees of the inventive compounds in inhibiting the human BRD4 bromodomain 1 by Alpha-screen assay method.
# Recombinant human BRD4 bromodomain 1 expressed in E. coli with N-terminal His-tag was used as the enzyme target.
# A synthetic peptide ([…]-GSGSK-biotin) containing 1 to 21th amino acids of histone H4 acetylated at lysine 5, 8, 12 and 16 and conjugated to biotin was purchased from Millipore.
# BRD4-1 (44 to 170th amino acids; Genbank Accession # NM_058243) was expressed in E. coli with N-terminal His-tag (see, Ni-NTA spin Kit Handbook (Qiagen), second edition, January, 2008). Nickel-Chelate ALPHA acceptor beads (Perkin Elmer) were used to specifically bind BRD4-1, and ALPHA streptavidin donor beads (Perkin Elmer) were used because they specifically recognized the biotinylated H4 peptide.
# BRD binding assays were performed in a mixture comprising 50 mM Hepes (pH7.5), 100 mM NaCl, 0.05% CHAPS, 0.1% BSA, and 1% DMSO. After an assay reaction time of 60 min at 25° C., binding was measured with streptavidin donor beads and nickel-chelate acceptor beads. ALPHA signal was detected on Enspire (Ex/Em=680/520-620 nm). IC50 values were calculated from the fit of the dose-response curves. All IC50 values represent geometric mean values of a minimum of four determinations. These assays generally produced results within 3-fold of the reported mean.
compound,measurement,setting,value
"COc1ccc2c(c1)C(c1ccc(Cl)cc1)=N[C@@H](COS(C)(=O)=O)c1nnc(C)n1-2 [Compound 1, (R)-(6-(4-chlorophenyl)-8-methoxy-1-methyl-4H-benzo[f]-[1,2,4]triazolo[4,3-a][1,4]diazepin-4-yl)methyl methanesulfonate]",IC50,MDA-MB-435 (breast),5.99 µM
same,AUC,[1]; IV,19.7 µM·h
same,MRT,[1]; IV,4.9 h
same,clearance,[1]; IV,5.6 mL/min/kg
same,AUC,[1]; PO,17.3 µM·h
same,bioavailability,[1]; PO,92.3%
same,IC50,human BRD4 bromodomain 1,0.19 µM
